From the supplement of paper PMC10307832

Key:
Experiment in all cases: relative viability (nuclei count vs DMSO), 5 days (fraction); higher = more cells survive
CAL-12T = tested on: CAL-12T
Procedure, shortened: (§1)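 Cells from lung cancer lines were seeded into 1536-well plates and, one day later, dosed by pin tool. Treatments were either a single drug or a fixed dose of an anchor drug with five library-drug doses (not always all listed) in √10 steps. After 5 days, nuclei were stained in a one-step fixation (final 0.05% Triton X-100, 1% formaldehyde, 1 ug/ml Hoechst) and counted on 4× images, and relative viability is the treated-to-vehicle nuclei ratio, as the median of duplicate plates.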

NCI-H1650 = tested on: NCI-H1650
Procedure, shortened: as §1

A549 = tested on: A549
Procedure, shortened: as §1

IA-LM = tested on: IA-LM
Procedure, shortened: as §1

A-427 = tested on: A-427
Procedure, shortened: as §1

NCI-H1299 = tested on: NCI-H1299
Procedure, shortened: as §1

NCI-H1703 = tested on: NCI-H1703
Procedure, shortened: as §1

LK-2 = tested on: LK-2
Procedure, shortened: as §1

Calu-6 = tested on: Calu-6
Procedure, shortened: as §1

NCI-H1734 = tested on: NCI-H1734
Procedure, shortened: as §1

UMC-11 = tested on: UMC-11
Procedure, shortened: as §1

NCI-H2009 = tested on: NCI-H2009
Procedure, shortened: as §1

EBC-1 = tested on: EBC-1
Procedure, shortened: as §1

Compound: Nc1ccn([C@@H]2O[C@H](CO)[C@@H](O)[C@@H]2O)c(=O)n1 [Cytarabine] + CS(=O)(=O)N1CCN(Cc2cc3nc(-c4cccc5[nH]ncc45)nc(N4CCOCC4)c3s2)CC1 [Pictilisib] (partner 1 µM)
- relative viability (CAL-12T; first compound 0.005 µM): 0.403
- relative viability (CAL-12T; first compound 0.01581 µM): 0.357
- relative viability (CAL-12T; first compound 0.05 µM): 0.31
- relative viability (CAL-12T; first compound 0.1581 µM): 0.326
- relative viability (CAL-12T; first compound 0.5 µM): 0.222
- relative viability (NCI-H1650; first compound 0.005 µM): 0.442
- relative viability (NCI-H1650; first compound 0.01581 µM): 0.467
- relative viability (NCI-H1650; first compound 0.05 µM): 0.359
- relative viability (NCI-H1650; first compound 0.1581 µM): 0.205
- relative viability (NCI-H1650; first compound 0.5 µM): 0.181
- relative viability (A549; first compound 0.005 µM): 0.506
- relative viability (A549; first compound 0.05 µM): 0.539
- relative viability (A549; first compound 0.1581 µM): 0.0667
- relative viability (A549; first compound 0.5 µM): 0.039
- relative viability (IA-LM; first compound 0.005 µM): 0.296
- relative viability (IA-LM; first compound 0.01581 µM): 0.336
- relative viability (IA-LM; first compound 0.05 µM): 0.338
- relative viability (IA-LM; first compound 0.1581 µM): 0.154
- relative viability (IA-LM; first compound 0.5 µM): 0.0939
- relative viability (A-427; first compound 0.005 µM): 0.576
- relative viability (A-427; first compound 0.01581 µM): 0.419
- relative viability (A-427; first compound 0.05 µM): 0.314
- relative viability (A-427; first compound 0.1581 µM): 0.178
- relative viability (A-427; first compound 0.5 µM): 0.147
- relative viability (NCI-H1299; first compound 0.005 µM): 0.819
- relative viability (NCI-H1299; first compound 0.01581 µM): 0.839
- relative viability (NCI-H1299; first compound 0.05 µM): 0.959
- relative viability (NCI-H1299; first compound 0.1581 µM): 0.656
- relative viability (NCI-H1299; first compound 0.5 µM): 0.645
- relative viability (NCI-H1703; first compound 0.005 µM): 0.263
- relative viability (NCI-H1703; first compound 0.01581 µM): 0.182
- relative viability (NCI-H1703; first compound 0.05 µM): 0.194
- relative viability (NCI-H1703; first compound 0.1581 µM): 0.149
- relative viability (NCI-H1703; first compound 0.5 µM): 0.158
- relative viability (LK-2; first compound 0.005 µM): 0.531
- relative viability (LK-2; first compound 0.01581 µM): 0.476
- relative viability (LK-2; first compound 0.05 µM): 0.426
- relative viability (LK-2; first compound 0.1581 µM): 0.23
- relative viability (LK-2; first compound 0.5 µM): 0.235
- relative viability (Calu-6; first compound 0.005 µM): 0.741
- relative viability (Calu-6; first compound 0.01581 µM): 0.618
- relative viability (Calu-6; first compound 0.05 µM): 0.775
- relative viability (Calu-6; first compound 0.1581 µM): 0.371
- relative viability (Calu-6; first compound 0.5 µM): 0.203
- relative viability (NCI-H1734; first compound 0.005 µM): 0.365
- relative viability (NCI-H1734; first compound 0.01581 µM): 0.217
- relative viability (NCI-H1734; first compound 0.05 µM): 0.213
- relative viability (NCI-H1734; first compound 0.1581 µM): 0.147
- relative viability (NCI-H1734; first compound 0.5 µM): 0.118
- relative viability (UMC-11; first compound 0.005 µM): 0.488
- relative viability (UMC-11; first compound 0.01581 µM): 0.411
- relative viability (UMC-11; first compound 0.05 µM): 0.318
- relative viability (UMC-11; first compound 0.1581 µM): 0.175
- relative viability (UMC-11; first compound 0.5 µM): 0.161
- relative viability (NCI-H2009; first compound 0.005 µM): 0.907
- relative viability (NCI-H2009; first compound 0.01581 µM): 0.678
- relative viability (NCI-H2009; first compound 0.05 µM): 0.81
- relative viability (NCI-H2009; first compound 0.1581 µM): 0.487
- relative viability (NCI-H2009; first compound 0.5 µM): 0.224
- relative viability (EBC-1; first compound 0.005 µM): 0.37
- relative viability (EBC-1; first compound 0.01581 µM): 0.29
- relative viability (EBC-1; first compound 0.05 µM): 0.239
- relative viability (EBC-1; first compound 0.1581 µM): 0.215
- relative viability (EBC-1; first compound 0.5 µM): 0.193

Compound: Nc1ccn([C@@H]2O[C@H](CO)[C@@H](O)[C@@H]2O)c(=O)n1 [Cytarabine] + CS(=O)(=O)CCNCc1ccc(-c2ccc3ncnc(Nc4ccc(OCc5cccc(F)c5)c(Cl)c4)c3c2)o1 [Lapatinib] (partner 2 µM)
- relative viability (CAL-12T; first compound 0.005 µM): 0.848
- relative viability (CAL-12T; first compound 0.01581 µM): 0.629
- relative viability (CAL-12T; first compound 0.05 µM): 0.542
- relative viability (CAL-12T; first compound 0.1581 µM): 0.388
- relative viability (CAL-12T; first compound 0.5 µM): 0.269
- relative viability (NCI-H1650; first compound 0.005 µM): 0.807
- relative viability (NCI-H1650; first compound 0.01581 µM): 0.604
- relative viability (NCI-H1650; first compound 0.05 µM): 0.317
- relative viability (NCI-H1650; first compound 0.1581 µM): 0.247
- relative viability (NCI-H1650; first compound 0.5 µM): 0.155
- relative viability (A549; first compound 0.005 µM): 0.835
- relative viability (A549; first compound 0.01581 µM): 0.648
- relative viability (A549; first compound 0.05 µM): 0.569
- relative viability (A549; first compound 0.1581 µM): 0.148
- relative viability (A549; first compound 0.5 µM): 0.0593
- relative viability (IA-LM; first compound 0.005 µM): 0.85
- relative viability (IA-LM; first compound 0.01581 µM): 0.729
- relative viability (IA-LM; first compound 0.05 µM): 0.588
- relative viability (IA-LM; first compound 0.1581 µM): 0.297
- relative viability (IA-LM; first compound 0.5 µM): 0.175
- relative viability (A-427; first compound 0.005 µM): 0.93
- relative viability (A-427; first compound 0.01581 µM): 0.565
- relative viability (A-427; first compound 0.05 µM): 0.274
- relative viability (A-427; first compound 0.1581 µM): 0.184
- relative viability (A-427; first compound 0.5 µM): 0.183
- relative viability (NCI-H1299; first compound 0.005 µM): 0.976
- relative viability (NCI-H1299; first compound 0.01581 µM): 0.979
- relative viability (NCI-H1299; first compound 0.05 µM): 1.07
- relative viability (NCI-H1299; first compound 0.1581 µM): 0.987
- relative viability (NCI-H1299; first compound 0.5 µM): 0.95
- relative viability (NCI-H1703; first compound 0.005 µM): 0.776
- relative viability (NCI-H1703; first compound 0.01581 µM): 0.388
- relative viability (NCI-H1703; first compound 0.05 µM): 0.286
- relative viability (NCI-H1703; first compound 0.1581 µM): 0.16
- relative viability (NCI-H1703; first compound 0.5 µM): 0.194
- relative viability (LK-2; first compound 0.005 µM): 0.627
- relative viability (LK-2; first compound 0.01581 µM): 0.479
- relative viability (LK-2; first compound 0.05 µM): 0.395
- relative viability (LK-2; first compound 0.1581 µM): 0.248
- relative viability (LK-2; first compound 0.5 µM): 0.283
- relative viability (Calu-6; first compound 0.005 µM): 0.903
- relative viability (Calu-6; first compound 0.01581 µM): 0.856
- relative viability (Calu-6; first compound 0.05 µM): 0.921
- relative viability (Calu-6; first compound 0.1581 µM): 0.512
- relative viability (Calu-6; first compound 0.5 µM): 0.341
- relative viability (NCI-H1734; first compound 0.005 µM): 0.628
- relative viability (NCI-H1734; first compound 0.01581 µM): 0.341
- relative viability (NCI-H1734; first compound 0.05 µM): 0.481
- relative viability (NCI-H1734; first compound 0.1581 µM): 0.151
- relative viability (NCI-H1734; first compound 0.5 µM): 0.134
- relative viability (UMC-11; first compound 0.005 µM): 0.632
- relative viability (UMC-11; first compound 0.01581 µM): 0.462
- relative viability (UMC-11; first compound 0.05 µM): 0.434
- relative viability (UMC-11; first compound 0.1581 µM): 0.193
- relative viability (UMC-11; first compound 0.5 µM): 0.211
- relative viability (NCI-H2009; first compound 0.005 µM): 0.992
- relative viability (NCI-H2009; first compound 0.01581 µM): 0.878
- relative viability (NCI-H2009; first compound 0.05 µM): 0.444
- relative viability (NCI-H2009; first compound 0.1581 µM): 0.694
- relative viability (NCI-H2009; first compound 0.5 µM): 0.349
- relative viability (EBC-1; first compound 0.01581 µM): 0.22
- relative viability (EBC-1; first compound 0.05 µM): 0.185
- relative viability (EBC-1; first compound 0.1581 µM): 0.152
- relative viability (EBC-1; first compound 0.5 µM): 0.208
